Source: patent US9394228B2, “Methods of treatment using lipid compounds” (PRONOVA BIOPHARMA NORGE AS, priority 2010, dated 2016)

Tests used:
[1] = target: T1, PPAR[…] (positive control GW7647, i.e. PPARα) (Homo sapiens, UniProt Q07869); assay: PPAR activation in vitro, mammalian-one-hybrid (M1H) GAL4-PPAR-LBD luciferase reporter assay; type: cell-based; settings: efficacy of positive control GW7647 set to 100%; HEK293 cells; first PPAR[…] column
T1 construct: expressed in transfected cells; host or cells: HEK293
T1 sequence (Q07869 239-466 limits assumed, species assumed): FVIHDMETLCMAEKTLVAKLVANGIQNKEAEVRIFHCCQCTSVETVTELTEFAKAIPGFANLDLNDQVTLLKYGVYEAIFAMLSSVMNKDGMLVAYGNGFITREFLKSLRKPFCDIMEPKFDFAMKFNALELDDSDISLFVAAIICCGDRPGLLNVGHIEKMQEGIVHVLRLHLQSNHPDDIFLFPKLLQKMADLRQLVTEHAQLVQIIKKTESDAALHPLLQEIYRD
T1 sequence (P04386 1-147 partner limits assumed, species assumed): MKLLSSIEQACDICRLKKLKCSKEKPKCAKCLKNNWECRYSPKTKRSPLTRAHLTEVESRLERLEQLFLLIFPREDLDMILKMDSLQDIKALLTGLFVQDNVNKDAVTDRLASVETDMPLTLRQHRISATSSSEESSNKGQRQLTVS
Procedure: (§1) Compounds (A)-(C) and a positive control were tested at six different concentrations in duplicate:
(§2) The positive controls were GW7647 (PPAR[…]), GW501516 (PPAR[…]) and rosiglitazone (PPAR[…]). The efficacy of the controls were set to 100%.
(§3) Assays were carried out in vitro using mammalian-one-hybrid assays (M1H) comprising GAL4-DNA binding domain-PPAR-LBD fusion constructs in conjunction with 5×GAL4-sites driven Photinus pyralis luciferase reporter constructs in transiently transfected HEK293 cells. The cells were transfected 4-6 hours and grown overnight before compounds were added. Compound incubation was 16-20 hours. Renilla reniformis luciferase, driven by a constitutive promoter, was included as internal control to improve experimental accuracy.

[2] = target: T2, PPAR[…] (positive control GW501516, i.e. PPARδ) (Homo sapiens, UniProt Q03181); assay: as above; type: cell-based; settings: second PPAR[…] column; for Efficacy: efficacy of positive control GW501516 set to 100%, HEK293 cells; for EC50: transiently transfected HEK293 cells, compound incubation 16-20 hours
T2 construct: expressed in transfected cells; host or cells: HEK293
T2 sequence (Q03181 211-439 limits assumed): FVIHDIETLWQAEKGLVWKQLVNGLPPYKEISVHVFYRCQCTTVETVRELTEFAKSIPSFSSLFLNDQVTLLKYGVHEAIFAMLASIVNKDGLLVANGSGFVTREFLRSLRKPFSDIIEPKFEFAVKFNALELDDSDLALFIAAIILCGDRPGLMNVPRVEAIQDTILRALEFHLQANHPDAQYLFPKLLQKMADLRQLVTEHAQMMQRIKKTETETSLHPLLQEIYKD
T2 sequence (P04386 1-147 partner limits assumed): as the sequence (P04386 1-147 partner limits assumed, species assumed) above
Procedure: as §1, §2, §3

[3] = target: T3, PPAR[…] (positive control rosiglitazone, i.e. PPARγ) (Homo sapiens, UniProt P37231); assay: as above; type: cell-based; settings: efficacy of positive control rosiglitazone set to 100%; HEK293 cells; third PPAR[…] column
T3 construct: expressed in transfected cells; host or cells: HEK293
T3 sequence (P37231 238-503 limits assumed): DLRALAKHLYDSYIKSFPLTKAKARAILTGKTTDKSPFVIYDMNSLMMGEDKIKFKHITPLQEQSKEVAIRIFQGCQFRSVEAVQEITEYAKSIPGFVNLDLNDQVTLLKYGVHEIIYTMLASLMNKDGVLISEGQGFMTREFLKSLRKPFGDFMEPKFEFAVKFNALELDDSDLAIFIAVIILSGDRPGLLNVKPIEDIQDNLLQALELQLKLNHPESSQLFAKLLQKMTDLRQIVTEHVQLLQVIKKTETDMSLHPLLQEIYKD
T3 sequence (P04386 1-147 partner limits assumed): as the sequence (P04386 1-147 partner limits assumed, species assumed) above
Procedure: as §1, §2, §3

[4] = system: APOE*3Leiden.CETP transgenic mice; assay: Effects on in vivo atherosclerosis development in a mouse model
Excerpt: The APOE*3Leiden.CETP transgenic mouse has proven to be representative of the human situation with respect to plasma lipoprotein levels and its responsiveness to hypolipidemic drugs (like statins, fibrates etc.) and nutritional intervention. APOE*3Leiden.CETP mice develop atherosclerotic lesions in the aorta resembling those found in humans with respect to cellular composition and morphological and immunohistochemical characteristics.
Female APOE*3Leiden.CETP mice were put on a Western-type diet (WTD) with 0.15% cholesterol and 15% saturated fat; resulting in plasma cholesterol levels of about 13-15 mM. After a 3 week run-in period on the WTD, the mice were sub-divided into 4 groups of 15 mice, control (no treatment), Compound A of Example 2 above, fenofibrate and a low-cholesterol diet. The groups were matched for body weight, plasma total cholesterol (TC), HDL cholesterol (HDL-C) and triglycerides (TG) after 4 h fasting (t=0).
The test substances were administered orally as admix to the Western-type diet. To facilitate the mixing of the compounds sunflower oil was added to a total oil volume of 10 mL/kg diet. Compound (A) was tested at initially at 0.1 mmol/kg bw/day and reduced to 0.04 mmol/kg bw/day at 4 weeks; the initial dose was based on a prior dose-finding study to establish the required dosage that would reduce VLDL/LDL cholesterol by 25-30%. The fenofibrate dose was initially 10 mg/kg bw/day, and later reduced to 4.2 mg/kg bw/day to parallel reductions in VLDL/LDL cholesterol induced by Compound A.
At t=0 and t=17 weeks, blood samples were taken after a 4 hour-fast period to measure plasma cholesterol and triglycerides. Atherosclerosis development in aortic root (total lesion area) was measured at sacrifice.
The results for total cholesterol (mM), HDL cholesterol (mM), lesion area (μm^2*1000) and undiseased segments (%) are shown in FIGS. 4, 5, 6, and 7, respectively.

## CC/C=C\C/C=C\C/C=C\C/C=C\C/C=C\CCCCOC(CC)C(=O)O (stereo not shown) [Compound A, 2-((5Z,8Z,11Z,14Z,17Z)-icosa-5,8,11,14,17-pentaenyloxy)butanoic acid]
[1]
  Efficacy: 82%
[2]
  Efficacy: inactive
  EC50: inactive
[3]
  Efficacy: 22%
[4]; APOE*3Leiden.CETP transgenic mice, overall conclusion
  development of atherosclerosis: inhibits
[4]; aortic root, at sacrifice, as compared to control, p<0.003
  lesion area: significantly decreased
[4]; as compared to control, p<0.001, oral admix to Western-type diet, 0.1 then 0.04 mmol/kg bw/day, t=17 weeks
  total cholesterol: significantly decreased
[4]; as compared to control, p<0.003, oral admix to Western-type diet, 0.1 then 0.04 mmol/kg bw/day, t=17 weeks
  HDL cholesterol: significantly increased

## CC/C=C\C/C=C\C/C=C\C/C=C\C/C=C\CCCCO[C@@H](CC)C(=O)O [Compound B, (S)-2-((5Z,8Z,11Z,14Z,17Z)-icosa-5,8,11,14,17-pentaenyloxy)butanoic acid]
[1]
  Efficacy: 86%
[2]
  Efficacy: inactive
  EC50: inactive
[3]
  Efficacy: 27%

## CC/C=C\C/C=C\C/C=C\C/C=C\C/C=C\CCCCO[C@H](CC)C(=O)O [Compound C, (R)-2-((5Z,8Z,11Z,14Z,17Z)-icosa-5,8,11,14,17-pentaenyloxy)butanoic acid]
[1]
  Efficacy: 54%
[2]
  Efficacy: inactive
  EC50: inactive
[3]
  Efficacy: 25%
